In US9610369B2, “Compound suitable for detection of vesicular acetylcholine transporter” (HAMAMATSU PHOTONICS K.K., priority 2013, dated 2017):

Experiments:
[1] = target: T1, vesicular acetylcholine transporters (Macaca mulatta, UniProt A0A1D5QJ59); assay: PET measurement of time-dependent change of [^11C]HAPT in brain ROIs; assay type: in vivo, Rhesus monkey (Macaca mulatta); conditions: brain of Rhesus monkey, FIG. 1; for binding to vesicular acetylcholine transporters: intravenous administration, dynamic PET 180 minutes
T1 construct: Rhesus monkey having a body weight of about 5 kg was immobilized to PET apparatus; from tissue; host or cells: brain of living Rhesus monkey (in vivo PET)
T1 sequence (A0A1D5QJ59 1-532): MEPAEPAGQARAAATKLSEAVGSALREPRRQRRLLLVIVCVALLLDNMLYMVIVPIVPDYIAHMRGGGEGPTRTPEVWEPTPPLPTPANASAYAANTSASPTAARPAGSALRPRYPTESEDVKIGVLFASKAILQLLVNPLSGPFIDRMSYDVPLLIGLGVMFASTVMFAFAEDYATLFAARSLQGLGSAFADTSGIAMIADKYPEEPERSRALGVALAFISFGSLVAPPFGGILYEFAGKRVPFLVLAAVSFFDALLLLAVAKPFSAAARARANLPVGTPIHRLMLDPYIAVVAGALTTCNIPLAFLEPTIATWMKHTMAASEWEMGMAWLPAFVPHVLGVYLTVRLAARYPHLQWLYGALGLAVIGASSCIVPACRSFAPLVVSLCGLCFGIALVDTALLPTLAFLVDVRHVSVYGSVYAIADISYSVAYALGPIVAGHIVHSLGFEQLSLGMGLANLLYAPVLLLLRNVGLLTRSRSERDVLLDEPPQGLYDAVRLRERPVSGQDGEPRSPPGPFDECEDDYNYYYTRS
Protocol: (§1) Rhesus monkey having a body weight of about 5 kg was immobilized to PET apparatus (trade name, SHR7700 manufactured by Hamamatsu Photonics KK) without anesthesia. After transmission was measured for absorption correction, [^11C]HAPT was intravenously administered and dynamic measurement was performed for 180 minutes.
In tomographic images obtained from a single individual by a nuclear magnetic resonance tomography apparatus (hereinafter, MRI), a region of interest (ROI) was determined and then, a time-dependent change of a labeled compound ([^11C]HAPT) in each ROI was obtained.

[2] = target: T1, vesicular acetylcholine transporters; assay: Localization of [^11C]HAPT in individual sites of the brain (PET); assay type: in vivo; conditions: brain of Rhesus monkey, 13 sites checked, FIG. 3
Protocol: as §1
Localization of [^11C]HAPT in individual sites of the brain of Rhesus monkey was checked. The results of the cases of using (S,S)HAPT-A and (R,R)HAPT-A are shown in FIG. 3 (A); whereas the results of the cases of using (S,S)HAPT-B and (R,R)HAPT-B are shown in FIG. 3 (B).

[3] = target: T1, vesicular acetylcholine transporters; assay: Inhibition experiment with vesicular transporter inhibitor vesamicol (PET); assay type: in vivo, Rhesus monkey; conditions: L-(−)-vesamicol 1 mg/kg intravenously 30 minutes before tracer, FIG. 4 and 5
Protocol: Inhibition experiments were performed by using a vesicular transporter inhibitor (vesamicol). Specific procedure employed is as follows.
The cephalic vein or saphenous vein was secured as the route for intravenous administration to test animals and the femoral artery or posterior tibial artery was secured as the route for arterial blood sampling.
Thirty minutes before administration of [^11C]HAPT, L-(−)-vesamicol was intravenously administered in a dose of 1 mg/kg.
The amount of radioactivity of [^11C]HAPT before administration was measured. A total amount of [^11C]HAPT was intravenously administered from an indwelling needle placed in a test animal over about 30 seconds. Simultaneously with initiation of administration, Emission measurement (121 minutes, 55 frames in total including: 10 seconds 6 frames, 30 seconds 6 frames, 1 minute 12 frames, […], 5 minutes 6 frames) was started for monitoring.

Row | Compound | binding to vesicular acetylcholine transporters [1] | localization in individual sites of the brain [2] | time to reach an equilibrium state from initiation of measurement ([1]; PET) | binding to vesicular acetylcholine transporters with vesamicol compared to control [3]
1 | Cc1cccc2c1C[C@@H](N1CCN(c3ccccc3N)CC1)[C@H](O)C2 [(R,R)[^11C]HAPT-A] | specifically bind to vesicular acetylcholine transporters | localized most significantly in the putamen | – | –
2 | Cc1cccc2c1C[C@@H](O)[C@H](N1CCN(c3ccccc3N)CC1)C2 [(R,R)[^11C]HAPT-B, (2R,3R)-3-(4-(2-aminophenyl)piperazin-1-yl)-8-[^11C]methyl-1,2,3,4-tetrahydronaphthalen-2-ol] | specifically binds to a vesicular acetylcholine transporter | localized most significantly in the putamen | – | –
3 | [11CH3]c1cccc2c1C[C@@H](O)[C@H](N1CCN(c3ccccc3N)CC1)C2 [(R,R)[^11C]HAPT-B, (2R,3R)-3-(4-(2-aminophenyl)piperazin-1-yl)-8-[^11C]methyl-1,2,3,4-tetrahydronaphthalen-2-ol] | specifically bind to vesicular acetylcholine transporters | – | about 15 minutes | reduces
4 | Cc1cccc2c1C[C@H](N1CCN(c3ccccc3N)CC1)[C@@H](O)C2 [(S,S)[^11C]HAPT-A] | specifically bind to vesicular acetylcholine transporters | localized most significantly in the putamen | – | –
5 | Cc1cccc2c1C[C@H](O)[C@@H](N1CCN(c3ccccc3N)CC1)C2 [(S,S)[^11C]HAPT-B] | does not bind to vesicular acetylcholine transporters | non-specific binding in any site | – | –
